Source: patent US6544990B2, “Substituted quinolinecarboxamides as antiviral agents” (Pharmacia & Upjohn Company, priority 2001, dated 2003)

Tests used:
HCMV polymerase = target: T1, HCMV polymerase (Human cytomegalovirus, UniProt P08546); assay: HCMV polymerase scintillation proximity assay (SPA); assay type: biochemical; settings: CMV polymerase
T1 construct: made in house; host or cells: recombinant baculovirus-infected SF-9 cells
Experimental: The HCMV polymerase assay is performed using a scintillation proximity assay (SPA) as described in several references, such as N. D. Cook, et al., Pharmaceutical Manufacturing International, pages 49-53 (1992); K. Takeuchi, Laboratory Practice, September issue (1992); U.S. Pat. No. 4,568,649 (1986); which are incorporated by reference herein. Reactions are performed in 96-well plates. The assay is conducted in 100 μl volume with 5.4 mM HEPES (pH 7.5), 11.7 mM KCl, 4.5 mM MgCl2, 0.36 mg/ml BSA, and 90 nM 3H-dTTP. Assays are run with and without CHAPS, (3-[(3-Cholamidopropyl)-dimethylammonio]-1-propane-sulfonate) at a final concentration of 2 mM. HCMV polymerase is diluted in enzyme dilution buffer containing 50% glycerol, 250 mM NaCl, 10 mM HEPES (pH 7.5), 100 μg/ml BSA, and 0.01% sodium azide. The HCMV polymerase, which is expressed in recombinant baculovirus-infected SF-9 cells and purified according to literature procedures, is added at 10% (or 10 μl ) of the final reaction volume, i.e., 100 μl. Compounds are diluted in 50% DMSO and 10 μl are added to each well. Control wells contain an equivalent concentration of DMSO. Unless noted otherwise, reactions are initiated via the addition of 6 nM biotinylated poly(dA)-oligo(dT) template/primer to reaction mixtures containing the enzyme, substrate, and compounds of interest. Plates are incubated in a 25 C or 37 C H20 bath and terminated via the addition of 40 μl/reaction of 0.5 M EDTA (pH 8) per well. Reactions are terminated within the time-frame during which substrate incorporation is linear and varied depending upon the enzyme and conditions used, i.e., 30 min. for HCMV polymerase. Ten μl of streptavidin-SPA beads (20 mg/mil in PBS/10% glycerol) are added following termination of the reaction. Plates are incubated 10 min. at 37 C, then equilibrated to room temperature, and counted on a Packard Topcount. Linear regressions are performed and IC50's are calculated using computer software.
A modified version of the above HCMV polymerase assay is performed as described above, but with the following changes: Compounds are diluted in 100% DMSO until final dilution into assay buffer. In the previous assay, compounds are diluted in 50% DMSO. 4.5 mM dithiotherotol (DTT) is added to the polymerase buffer.

VZV polymerase = VZV polymerase (Varicella-zoster virus, UniProt P09252); assay: Polymerase scintillation proximity assay (SPA), VZV; assay type: biochemical
HSV polymerase = HSV polymerase (Human herpesvirus 1, UniProt P04293); assay: Polymerase scintillation proximity assay (SPA), HSV; assay type: biochemical
Chain of HSV polymerase (P04293 whole entry): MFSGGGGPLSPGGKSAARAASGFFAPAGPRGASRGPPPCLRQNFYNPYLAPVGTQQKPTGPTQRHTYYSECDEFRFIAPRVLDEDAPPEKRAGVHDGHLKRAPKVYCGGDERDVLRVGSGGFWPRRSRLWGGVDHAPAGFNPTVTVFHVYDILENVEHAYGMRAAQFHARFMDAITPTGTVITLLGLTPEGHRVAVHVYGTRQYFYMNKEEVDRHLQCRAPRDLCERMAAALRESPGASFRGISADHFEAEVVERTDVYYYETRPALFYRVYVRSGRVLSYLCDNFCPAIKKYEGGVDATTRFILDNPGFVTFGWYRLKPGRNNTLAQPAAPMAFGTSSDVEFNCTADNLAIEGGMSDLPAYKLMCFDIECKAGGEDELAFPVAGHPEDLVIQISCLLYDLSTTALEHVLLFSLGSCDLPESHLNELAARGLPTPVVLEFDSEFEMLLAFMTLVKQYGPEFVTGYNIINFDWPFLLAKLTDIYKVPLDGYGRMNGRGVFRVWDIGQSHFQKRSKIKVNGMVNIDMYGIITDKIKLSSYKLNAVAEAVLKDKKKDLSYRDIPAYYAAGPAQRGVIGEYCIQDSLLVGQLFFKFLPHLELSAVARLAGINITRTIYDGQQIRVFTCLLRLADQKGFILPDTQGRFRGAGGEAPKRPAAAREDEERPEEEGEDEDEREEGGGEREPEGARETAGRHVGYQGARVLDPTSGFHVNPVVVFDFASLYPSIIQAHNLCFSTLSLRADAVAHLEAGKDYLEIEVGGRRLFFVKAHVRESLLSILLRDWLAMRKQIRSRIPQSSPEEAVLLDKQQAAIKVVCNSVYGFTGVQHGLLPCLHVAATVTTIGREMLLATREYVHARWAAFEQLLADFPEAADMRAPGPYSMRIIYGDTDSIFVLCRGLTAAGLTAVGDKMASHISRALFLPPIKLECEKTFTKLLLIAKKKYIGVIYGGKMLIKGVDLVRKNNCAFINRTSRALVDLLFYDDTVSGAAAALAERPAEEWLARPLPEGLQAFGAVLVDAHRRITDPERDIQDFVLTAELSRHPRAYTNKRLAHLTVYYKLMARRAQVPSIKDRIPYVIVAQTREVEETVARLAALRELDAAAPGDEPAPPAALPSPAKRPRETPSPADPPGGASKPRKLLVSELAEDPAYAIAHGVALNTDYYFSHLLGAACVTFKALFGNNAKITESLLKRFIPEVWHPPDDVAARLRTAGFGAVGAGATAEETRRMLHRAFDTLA

T1 sequence (P08546 whole entry): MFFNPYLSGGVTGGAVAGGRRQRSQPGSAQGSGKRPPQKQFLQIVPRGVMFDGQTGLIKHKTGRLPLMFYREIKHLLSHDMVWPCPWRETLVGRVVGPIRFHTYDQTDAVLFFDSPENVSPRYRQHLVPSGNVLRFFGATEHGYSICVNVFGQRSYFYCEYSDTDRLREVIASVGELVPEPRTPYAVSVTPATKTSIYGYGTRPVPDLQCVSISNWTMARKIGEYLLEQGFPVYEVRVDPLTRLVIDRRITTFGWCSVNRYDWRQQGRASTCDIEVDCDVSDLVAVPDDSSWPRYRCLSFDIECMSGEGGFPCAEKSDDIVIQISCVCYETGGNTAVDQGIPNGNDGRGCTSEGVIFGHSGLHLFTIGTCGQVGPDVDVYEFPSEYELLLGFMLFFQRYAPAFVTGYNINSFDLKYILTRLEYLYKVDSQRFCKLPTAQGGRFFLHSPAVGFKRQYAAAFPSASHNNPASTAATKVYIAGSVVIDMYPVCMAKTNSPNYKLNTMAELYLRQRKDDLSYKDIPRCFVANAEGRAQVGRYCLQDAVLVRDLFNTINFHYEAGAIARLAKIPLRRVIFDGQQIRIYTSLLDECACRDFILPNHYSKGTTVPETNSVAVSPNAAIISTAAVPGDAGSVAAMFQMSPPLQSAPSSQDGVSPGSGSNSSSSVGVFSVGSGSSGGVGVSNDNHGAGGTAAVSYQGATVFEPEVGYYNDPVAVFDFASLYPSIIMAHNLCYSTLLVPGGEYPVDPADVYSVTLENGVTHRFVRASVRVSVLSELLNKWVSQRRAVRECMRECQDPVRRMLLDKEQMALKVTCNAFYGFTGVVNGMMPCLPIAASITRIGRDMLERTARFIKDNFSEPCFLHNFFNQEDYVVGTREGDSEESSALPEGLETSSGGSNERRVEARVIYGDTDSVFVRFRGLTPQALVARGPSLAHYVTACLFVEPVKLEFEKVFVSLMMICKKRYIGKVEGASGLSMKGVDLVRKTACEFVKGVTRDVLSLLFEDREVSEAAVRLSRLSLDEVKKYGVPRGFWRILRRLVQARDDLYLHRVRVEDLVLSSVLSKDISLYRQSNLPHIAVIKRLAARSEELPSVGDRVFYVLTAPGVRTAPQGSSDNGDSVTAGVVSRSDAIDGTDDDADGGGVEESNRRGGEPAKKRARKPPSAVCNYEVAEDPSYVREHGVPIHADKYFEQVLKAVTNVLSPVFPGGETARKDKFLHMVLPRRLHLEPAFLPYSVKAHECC
Chain of VZV polymerase (P09252 whole entry): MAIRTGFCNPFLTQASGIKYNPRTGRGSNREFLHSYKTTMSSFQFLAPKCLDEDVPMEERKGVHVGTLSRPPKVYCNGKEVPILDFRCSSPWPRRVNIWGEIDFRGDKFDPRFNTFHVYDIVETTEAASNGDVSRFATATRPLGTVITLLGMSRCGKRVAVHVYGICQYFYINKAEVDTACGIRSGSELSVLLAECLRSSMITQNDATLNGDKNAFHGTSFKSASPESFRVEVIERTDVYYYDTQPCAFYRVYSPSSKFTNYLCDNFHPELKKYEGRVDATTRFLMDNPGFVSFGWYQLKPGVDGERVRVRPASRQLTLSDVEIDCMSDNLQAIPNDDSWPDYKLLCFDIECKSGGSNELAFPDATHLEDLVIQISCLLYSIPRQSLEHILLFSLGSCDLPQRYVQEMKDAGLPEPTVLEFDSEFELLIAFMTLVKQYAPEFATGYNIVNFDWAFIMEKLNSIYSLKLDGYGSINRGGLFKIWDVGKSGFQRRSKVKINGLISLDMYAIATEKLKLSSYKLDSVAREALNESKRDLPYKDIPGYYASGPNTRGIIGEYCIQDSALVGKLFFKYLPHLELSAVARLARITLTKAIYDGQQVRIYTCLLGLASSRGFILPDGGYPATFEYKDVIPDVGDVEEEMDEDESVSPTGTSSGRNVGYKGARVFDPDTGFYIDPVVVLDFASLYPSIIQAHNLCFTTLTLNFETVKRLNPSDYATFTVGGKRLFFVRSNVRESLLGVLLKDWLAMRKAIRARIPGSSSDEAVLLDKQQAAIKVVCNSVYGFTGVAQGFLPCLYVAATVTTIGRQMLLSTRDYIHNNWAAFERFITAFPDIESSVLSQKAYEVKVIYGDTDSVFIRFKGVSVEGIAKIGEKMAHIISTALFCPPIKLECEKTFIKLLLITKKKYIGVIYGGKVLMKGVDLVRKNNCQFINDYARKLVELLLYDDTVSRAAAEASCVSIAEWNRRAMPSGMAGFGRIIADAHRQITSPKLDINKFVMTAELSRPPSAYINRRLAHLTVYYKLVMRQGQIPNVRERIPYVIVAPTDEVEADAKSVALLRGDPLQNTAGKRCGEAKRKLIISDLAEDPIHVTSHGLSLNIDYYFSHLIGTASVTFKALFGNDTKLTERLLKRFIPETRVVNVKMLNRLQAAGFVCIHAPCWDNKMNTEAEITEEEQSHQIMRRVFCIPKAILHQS

Row | IC50 (HCMV polymerase) [µM] | IC50 (VZV polymerase) [µM] | melting point [°C] | IC50 (HSV polymerase) [µM] | Compound
1 | 0.32 | 0.18 | 166 to 168 | 0.25 | Cn1cc(C(=O)NCc2ccc(Cl)cc2)c(=O)c2cc(CC3CCOCC3)cc(C#CCO)c21 [Example 1, N-(4-chlorobenzyl)-8-(3-hydroxy-1-propynyl)-1-methyl-4-oxo-6-(tetrahydro-2H-pyran-4-ylmethyl)-1,4-dihydro-3-quinolinecarboxamide]
2 | 0.32 |  | 186 to 188 |  | Cn1cc(C(=O)NCc2ccc(Cl)cc2)c(=O)c2cc(CC3CCOCC3)cc(C#CCCO)c21 [Example 2, N-(4-chlorobenzyl)-8-(4-hydroxy-1-butynyl)-1-methyl-4-oxo-6-(tetrahydro-2H-pyran-4-ylmethyl)-1,4-dihydro-3-quinolinecarboxamide]
3 | 0.87 |  | 157 to 159 |  | CN(C)CC#Cc1cc(CC2CCOCC2)cc2c(=O)c(C(=O)NCc3ccc(Cl)cc3)cn(C)c12 [Example 3, N-(4-chlorobenzyl)-8-[3-(dimethylamino)-1-propynyl]-1-methyl-4-oxo-6-(tetrahydro-2H-pyran-4-ylmethyl)-1,4-dihydro-3-quinolinecarboxamide]
4 | 0.83 | 0.36 | 180 to 183 | 0.83 | Cn1cc(C(=O)NCc2ccc(Cl)cc2)c(=O)c2cc(CN3CCOCC3)cc(C#CCO)c21 [Example 4, N-(4-chlorobenzyl)-8-(3-hydroxy-1-propynyl)-1-methyl-6-(4-morpholinylmethyl)-4-oxo-1,4-dihydro-3-quinolinecarboxamide]
5 | 1.6 |  | 154 to 157 |  | CN(C)CC#Cc1cc(CN2CCOCC2)cc2c(=O)c(C(=O)NCc3ccc(Cl)cc3)cn(C)c12 [Example 5, N-(4-chlorobenzyl)-8-[3-(dimethylamino)-1-propynyl]-1-methyl-6-(4-morpholinylmethyl)-4-oxo-1,4-dihydro-3-quinolinecarboxamide]
6 | 0.8 | 0.36 | 168 to 170 | 0.82 | Cn1cc(C(=O)NCc2ccc(Cl)cc2)c(=O)c2cc(CN3CCOCC3)cc(C#CCCO)c21 [Example 6, N-(4-chlorobenzyl)-8-(4-hydroxy-1-butynyl)-1-methyl-6-(4-morpholinylmethyl)-4-oxo-1,4-dihydro-3-quinolinecarboxamide]
7 | 0.55 |  | 171 to 173 |  | Cn1cc(C(=O)NCc2ccc(Cl)cc2)c(=O)c2cc(CN3CCOCC3)cc(C#CCC[C@@H]3COC(=O)N3)c21 [Example 9, N-(4-chlorobenzyl)-1-methyl-6-(4-morpholinylmethyl)-4-oxo-8-{4-[(4R)-2-oxo-1,3-oxazolidin-4-yl]-1-butynyl}-1,4-dihydro-3-quinolinecarboxamide]
8 | 0.77 |  | 189 to 191 |  | Cn1cc(C(=O)NCc2ccc(Cl)cc2)c(=O)c2cc(CN3CCOCC3)cc(C#CCF)c21 [Example 12, N-(4-chlorobenzyl)-8-(3-fluoroprop-1-ynyl)-1-methyl-6-(morpholin-4-ylmethyl)-4-oxo-1,4-dihydroquinoline-3-carboxamide]
9 | 0.52 |  |  |  | Cc1cncn1CC#Cc1cc(CN2CCOCC2)cc2c(=O)c(C(=O)NCc3ccc(Cl)cc3)cn(C)c12 [Example 14, N-(4-chlorobenzyl)-1-methyl-8-[3-(5-methyl-1H-imidazol-1-yl)prop-1-ynyl]-6-(morpholin-4-ylmethyl)-4-oxo-1,4-dihydroquinoline-3-carboxamide]
10 | 0.61 |  | 178 to 180 |  | CC(O)CC#Cc1cc(CN2CCOCC2)cc2c(=O)c(C(=O)NCc3ccc(Cl)cc3)cn(C)c12 (centres unmarked) [Example 18, N-(4-chlorobenzyl)-8-(4-hydroxypent-1-ynyl)-1-methyl-6-(morpholin-4-ylmethyl)-4-oxo-1,4-dihydroquinoline-3-carboxamide]
11 | 1.01 |  | 180 to 183 |  | Cn1cc(C(=O)NCc2ccc(Cl)cc2)c(=O)c2cc(CN3CCOCC3)cc(C#CCN3CCC(O)CC3)c21 [Example 19, N-(4-chlorobenzyl)-8-[3-(4-hydroxypiperidin-1-yl)prop-1-ynyl]-1-methyl-6-(morpholin-4-ylmethyl)-4-oxo-1,4-dihydroquinoline-3-carboxamide]
12 | 1.02 |  | 144 to 146 |  | Cn1cc(C(=O)NCc2ccc(Cl)cc2)c(=O)c2cc(CN3CCOCC3)cc(C#CCN3CCC(O)C3)c21 (centres unmarked) [Example 20, N-(4-chlorobenzyl)-8-[3-(3-hydroxypyrrolidin-1-yl)prop-1-ynyl]-1-methyl-6-(morpholin-4-ylmethyl)-4-oxo-1,4-dihydroquinoline-3-carboxamide]
13 | 0.8 |  | 140 to 142 |  | CN(CC#Cc1cc(CN2CCOCC2)cc2c(=O)c(C(=O)NCc3ccc(Cl)cc3)cn(C)c12)CC(O)CO (centres unmarked) [Example 21, N-(4-chlorobenzyl)-8-{3-[(2,3-dihydroxypropyl)(methyl)amino]prop-1-ynyl}-1-methyl-6-(morpholin-4-ylmethyl)-4-oxo-1,4-dihydroquinoline-3-carboxamide]
14 | 0.82 |  | 148 to 149 |  | CN(CC#Cc1cc(CN2CCOCC2)cc2c(=O)c(C(=O)NCc3ccc(Cl)cc3)cn(C)c12)CCO [Example 22, N-(4-chlorobenzyl)-8-{3-[(2-hydroxyethyl)(methyl)amino]prop-1-ynyl}-1-methyl-6-(morpholin-4-ylmethyl)-4-oxo-1,4-dihydroquinoline-3-carboxamide]
15 | 0.56 |  | 190 to 193 |  | Cn1cc(C(=O)NCc2ccc(Cl)cc2)c(=O)c2cc(CN3CCOCC3)cc(C#CCC(CO)CO)c21 [Example 24, N-(4-chlorobenzyl)-8-[5-hydroxy-4-(hydroxymethyl)pent-1-ynyl]-1-methyl-6-(morpholin-4-ylmethyl)-4-oxo-1,4-dihydroquinoline-3-carboxamide]
16 | 0.74 |  |  |  | Cn1cc(C(=O)NCc2ccc(Cl)cc2)c(=O)c2cc(CN3CCOCC3)cc(C#CCN3CCCC(CO)C3)c21 (centres unmarked) [Example 25, N-(4-chlorobenzyl)-8-{3-[3-(hydroxymethyl)piperidin-1-yl]prop-1-ynyl}-1-methyl-6-(morpholin-4-ylmethyl)-4-oxo-1,4-dihydroquinoline-3-carboxamide]
17 | 1.29 |  |  |  | Cn1cc(C(=O)NCc2ccc(Cl)cc2)c(=O)c2cc(CN3CCOCC3)cc(C#CCN3CCN(CCO)CC3)c21 [Example 26, N-(4-chlorobenzyl)-8-{3-[4-(2-hydroxyethyl)piperazin-1-yl]prop-1-ynyl}-1-methyl-6-(morpholin-4-ylmethyl)-4-oxo-1,4-dihydroquinoline-3-carboxamide]
18 | 0.94 |  |  |  | Cn1cc(C(=O)NCc2ccc(Cl)cc2)c(=O)c2cc(CN3CCOCC3)cc(C#CCN3CCC[C@H]3CO)c21 [Example 27, N-(4-chlorobenzyl)-8-{3-[(2S)-2-(hydroxymethyl)pyrrolidin-1-yl]prop-1-ynyl}-1-methyl-6-(morpholin-4-ylmethyl)-4-oxo-1,4-dihydroquinoline-3-carboxamide]
19 | 0.82 |  |  |  | Cn1cc(C(=O)NCc2ccc(Cl)cc2)c(=O)c2cc(CN3CCOCC3)cc(C#CCN3CCCC(O)C3)c21 (centres unmarked) [Example 28, N-(4-chlorobenzyl)-8-[3-(3-hydroxypiperidin-1-yl)prop-1-ynyl]-1-methyl-6-(morpholin-4-ylmethyl)-4-oxo-1,4-dihydroquinoline-3-carboxamide]
20 | 0.73 |  |  |  | Cn1cc(C(=O)NCc2ccc(Cl)cc2)c(=O)c2cc(CN3CCOCC3)cc(C#CCN3CCC[C@@H]3CO)c21 [Example 29, N-(4-chlorobenzyl)-8-{3-[(2R)-2-(hydroxymethyl)pyrrolidin-1-yl]prop-1-ynyl}-1-methyl-6-(morpholin-4-ylmethyl)-4-oxo-1,4-dihydroquinoline-3-carboxamide]
21 | 0.71 |  |  |  | Cn1cc(C(=O)NCc2ccc(Cl)cc2)c(=O)c2cc(CN3CCOCC3)cc(C#CCN3CCCCC3CCO)c21 (centres unmarked) [Example 30, N-(4-chlorobenzyl)-8-{3-[2-(2-hydroxyethyl)piperidin-1-yl]prop-1-ynyl}-1-methyl-6-(morpholin-4-ylmethyl)-4-oxo-1,4-dihydroquinoline-3-carboxamide]
22 | 0.49 | 0.33 |  | 0.55 | CCCCN(CC#Cc1cc(CN2CCOCC2)cc2c(=O)c(C(=O)NCc3ccc(Cl)cc3)cn(C)c12)CCO [Example 31, 8-{3-[butyl(2-hydroxyethyl)amino]prop-1-ynyl}-N-(4-chlorobenzyl)-1-methyl-6-(morpholin-4-ylmethyl)-4-oxo-1,4-dihydroquinoline-3-carboxamide]
